Among the data in patent US20250154154A1 (Relay Binney Street, 2nd Floor, priority 2020, published 2025) are IC50 values, retold here.

This assay addresses SRC (Homo sapiens, UniProt P12931). The experiment in a line: SRC Biochemical Assay Protocol (microfluidic mobility shift assay, FLPeptide4 substrate). Here is the method:
SRC Biochemical Assay Protocol
Src biochemical kinase activity was measured using a surrogate fluorescent peptide substrate [FLPeptide4; 5-FAM-EGIYGVLFKKK-CONH2 (PerkinElmer Cat. No. 760348)] with a microfluidic mobility shift assay. Reactions were performed in 384-well flat bottom polystyrene microplates (Corning Cat. No. 3570) at a final volume of 20 μL in 50 mM HEPES pH 7.4, 1 mM EGTA, 10 mM MgCl2, 0.01% Brij-35, 2 mM DTT, 0.05% BSA, 1% DMSO. Inhibition experiments were performed with compounds of the invention varying from 0.0017-100 μM with 0.26 nM SRC, 1.5 μM FLPeptide4, and 50 μM ATP. Specifically, 15 μl 1.3× mixtures of SRC+FLPeptide4+compounds were preincubated for 30 minutes at room temperature followed by addition of 5 μL 4×ATP. Reactions were carried out for 90 minutes then quenched with 40 μl 500 mM EDTA. Phosphorylated peptide product was measured with a mobility shift assay using a LabChip® EZ Reader system (PerkinElmer Cat. No. 122919). Inhibition ratios were calculated relative to neutral controls and IC50 values were obtained from dose response data fitted to a 4-parameter logistic model.

Take `C=C(C)C(=O)N1CCC(N2CC(C#Cc3c(-c4ccc(Oc5ccccc5)cc4)c4c(N)ncnc4n3C)C2)CC1` [III-38]: the IC50 lay in the range of 0.01 to 1 µM. Turning to `CC(CO)n1c(C#CC2CCN(C(=O)/C=C/CN(C)C)CC2)c(-c2ccc(Oc3ccccc3)cc2)c2c(N)ncnc21` (stereo not drawn) [III-31], the IC50 was 0.01 to 1 µM. Take `C=CC(=O)N1CCC(O)(C#Cc2c(-c3ccc(Oc4ccccc4)cc3)c3c(N)ncnc3n2C)C1` (stereo not drawn) [III-13]: the IC50 is not above 0.01 µM.

Regarding `C=CC(=O)N1CCC(C#Cc2c(-c3ccc(Oc4ccccc4)cc3)c3c(N)ncnc3n2C)C1` (stereo not drawn) [III-11], the IC50 was 0.01 to 1 µM.

As for `C=CC(=O)N1CCC(C#Cc2c(-c3ccc(Oc4ccccc4)cc3)c3c(N)ncnc3n2[C@H](C)CO)CC1` (single isomer, unassigned) [Example I-24], the IC50 lay in the range of 0.01 to 1 µM. `CC(CO)n1c(C#CC2(O)CCN(C(=O)/C=C/CN(C)C)CC2)c(-c2ccc(Oc3ccccc3)cc2)c2c(N)ncnc21` (stereo not drawn) [III-27]: the IC50 was 0.01 to 1 µM. With “1-(4-(3-((4-amino- 7-isopropyl-5-(3- methoxy-4-(6- methylpyridin-2- yloxy)phenyl)-7H- pyrrolo[2,3- d]pyrimidin-6- yl)ethynyl)azetidin- 1-yl)piperidin-1- yl)prop-2-en-1-one [II-306]”, the IC50 lay in the range of 0.01 to 1 µM. Turning to `C=CC(=O)N1CCC(C#Cc2c(-c3ccc(Oc4ccccc4)nc3)c3c(N)ncnc3n2C(C)C)CC1` [Example I-10], the IC50 was 0.01 to 1 µM. To `C=CC(=O)N1CCC(C#Cc2c(-c3ccc(Oc4cccc(F)c4)cc3)c3c(N)ncnc3n2C(C)C)CC1` [Example I-28] belongs 0.01 to 1 µM. Take `C=CC(=O)N1CCC(O)(C#Cc2c(-c3ccc(Oc4ccccc4)c(Cl)c3)c3c(N)ncnc3n2C)CC1` [III-59]: the IC50 is 0.01 to 1 µM.

Take `COC(=O)C(C)N1CCC(C#Cc2c(-c3ccc(Oc4ccccc4)cc3)c3c(N)ncnc3n2C(C)C)CC1` (stereo not drawn) [II-148, methyl 2-(4-((4-amino-7-isopropyl-5-(4-phenoxyphenyl)-7H-pyrrolo[2,3-d]pyrimidin-6-yl)ethynyl)piperidin-1-yl)propanoate]: the half-maximal inhibitory concentration (IC50) is 0.01 to 1 µM. In the case of `Nc1ncnc2c1c(-c1ccc(Oc3ccccc3)cc1)c(C#CC1CCNCC1)n2C1CCOC1` (stereo not drawn) [II-155, 5-(4-phenoxyphenyl)-6-(piperidin-4-ylethynyl)-7-(tetrahydrofuran-3-yl)-7H-pyrrolo[2,3-d]pyrimidin-4-amine], the IC50 was not above 0.01 µM. In the case of `CC#CC(=O)N1CCC(C#Cc2c(-c3ccc(Oc4ccccc4)cc3)c3c(N)ncnc3n2C(C)C)CC1` [Example I-18], the IC50 is 0.01 to 1 µM. `C=CC(=O)N1CC2C(C#Cc3c(-c4ccc(Oc5ccccc5)cc4)c4c(N)ncnc4n3C)C2C1` (stereo not drawn) [III-52]: the IC50 was in the range of 0.01 to 1 µM. Consider `CC(C)n1c(C#CC2CCOCC2)c(-c2ccc(Oc3ccccc3)cc2)c2c(N)ncnc21` [III-8], for which the IC50 fell in the range of 0.01 to 1 µM.

As to `C=CC(=O)N1CCC(N2CC(C#Cc3c(-c4ccc(Oc5cccc(C)n5)c5c4OCO5)c4c(N)ncnc4n3C)C2)CC1` [III-90], the IC50 was in the range of 0.01 to 1 µM. For `C=CC(=O)N1CCC(O)(C#Cc2c(-c3ccc(Oc4ccccc4)c(F)c3)c3c(N)ncnc3n2C)CC1` [III-62] the value was 0.01 to 1 µM.

Consider `C=CS(=O)(=O)NC1CCC(C#Cc2c(-c3ccc(Oc4ccccc4)cc3)c3c(N)ncnc3n2C(C)C)CC1` (stereo not drawn) [Example I-43], for which the IC50 was not above 0.01 µM.

Take `C=CC(=O)N1CCC(N2CC(C#Cc3c(-c4ccc(Oc5cccc(C)n5)cc4)c4c(N)ncnc4n3C)C2)CC1` [III-75]: the IC50 was 0.01 to 1 µM. On to `COc1cc(-c2c(C#CC3CN(C)C3)n(C)c3ncnc(N)c23)ccc1Oc1cccc(C)n1` [III-86], for which the IC50 lay within 0.01 to 1 µM. As to `C=CC(=O)N1CCC(C#Cc2c(-c3ccc(Oc4ccccc4)cc3)c3c(N)ncnc3n2CCCN(C)C)C1` (stereo not drawn) [III-15], the IC50 was in the range of 0.01 to 1 µM.

As for `CN(C)C/C=C/C(=O)N1CCC(C#Cc2c(-c3ccc(Oc4ccccc4)cc3)c3c(N)ncnc3n2C2CCOC2)CC1` (stereo not drawn) [III-10], the IC50 lay in the range of 0.01 to 1 µM.

Take `CCC(=O)N1CC(N2CCC(C#Cc3c(-c4ccc(Oc5ccccc5)cc4)c4c(N)ncnc4n3C(C)C)CC2)C1` [II-158, 1-(3-(4-((4-amino-7-isopropyl-5-(4-phenoxyphenyl)-7H-pyrrolo[2,3-d]pyrimidin-6-yl)ethynyl)piperidin-1-yl)azetidin-1-yl)propan-1-one]: the IC50 was in the range of 0.01 to 1 µM.

Regarding `C=CC(=O)N[C@H](C)C(=O)N1CCC(C#Cc2c(-c3ccc(Oc4ccccc4)cc3)c3c(N)ncnc3n2C2CCOC2)CC1` (stereo partly drawn) [III-76], the IC50 is not above 0.01 µM. On to `C=CC(=O)N1CCC(C#Cc2c(-c3ccc(Oc4cccc(Cl)c4)cc3)c3c(N)ncnc3n2C(C)C)CC1` [Example I-36], for which the IC50 lay in the range of 0.01 to 1 µM.

With `C=CS(=O)(=O)N1CC(N2CCC(C#Cc3c(-c4ccc(Oc5ccccc5)cc4)c4c(N)ncnc4n3C(C)C)CC2)C1` [Example I-53], the IC50 was not above 0.01 µM. With `C=CC(=O)N1CC[C@H](N2CC(C#Cc3c(-c4ccc(Oc5ccccc5)cc4)c4c(N)ncnc4n3C)C2)[C@H](C)C1` [III-65], the IC50 lay in the range of 0.01 to 1 µM.

As to `C=CC(=O)N1CCC(N2CC(C#Cc3c(-c4ccc(Oc5ccccc5)cc4)c4c(N)ncnc4n3C)C2)C(C)C1` (stereo not drawn) [III-49], the IC50 fell in the range of 0.01 to 1 µM.

For the molecule `Cn1c(C#CC2CN(C(=O)/C=C/CN3CCC3)C2)c(-c2ccc(Oc3ccccc3)cc2)c2c(N)ncnc21` [III-81], the 50% inhibitory concentration (IC50) is 0.01 to 1 µM. Consider `C=CC(=O)N1CCC(C#Cc2c(-c3ccc(Oc4ccccc4)cc3)c3c(N)ncnc3n2C(C)C(=O)O)CC1` (stereo not drawn) [Example I-34], for which the IC50 lay within 1 to 10 µM. With `C=CS(=O)(=O)N1CCC(C#Cc2c(-c3ccc(Oc4ccccc4)cc3)c3c(N)ncnc3n2C(C)C)CC1` [Example I-37], the IC50 was not above 0.01 µM.

Consider `CN(C)C/C=C/C(=O)Nc1ncnc2c1c(-c1ccc(Oc3ccccc3)cc1)c(C#CC1CNC1)n2C1CCOC1` (stereo not drawn) [III-9], for which the IC50 is 0.01 to 1 µM. To `Cn1c(C#CC2(O)CCN(C(=O)/C=C/CN3CCOCC3)CC2)c(-c2ccc(Oc3ccccc3)cc2)c2c(N)ncnc21` [III-39] belongs 0.01 to 1 µM; to `C=CC(=O)N1CCC(N2CC(C#Cc3c(-c4ccc(Oc5ccccc5)cc4)c4c(N)ncnc4n3C)C2)C[C@H]1CO` (stereo partly drawn) [III-64], 0.01 to 1 µM; to `Cn1c(C#CC2CC3(C2)CN(C(=O)/C=C/CN2CCOCC2)C3)c(-c2ccc(Oc3ccccc3)cc2)c2c(N)ncnc21` [III-71], 0.01 to 1 µM. In the case of `C=CC(=O)N1CC[C@H](C#Cc2c(-c3ccc(Oc4ccccc4)cc3)c3c(N)ncnc3n2C)C[C@@H]1C` [III-77], the IC50 lay in the range of 0.01 to 1 µM.

Take `C=CC(=O)N1CCC(N2CCC(C#Cc3c(-c4ccc(Oc5ccccc5)cc4)c4c(N)ncnc4n3C)C2)CC1` (stereo not drawn) [III-73]: the IC50 lay in the range of 0.01 to 1 µM. Consider `CN(C)C/C=C/C(=O)N1CCC(C#Cc2c(-c3ccc(Oc4ccccc4)cc3)c3c(N)ncnc3n2C2CCOC2)C1` (stereo not drawn) [III-18], for which the IC50 was in the range of 0.01 to 1 µM. Turning to `C=CC(=O)NCC#Cc1c(-c2ccc(Oc3ncccn3)c(OC)c2)c2c(N)ncnc2n1C` [III-94], the IC50 is 1 to 10 µM. `C=CC(=O)N1CCC(N2CC(C#Cc3c(-c4ccc(Oc5ccccc5)cc4OC)c4c(N)ncnc4n3C)C2)CC1` [III-80]: the IC50 lay in the range of 0.01 to 1 µM.

Consider `C=CC(=O)N1CCC(N2CC(C#Cc3c(-c4ccc(Oc5ccccc5)cc4)c4c(N)ncnc4n3[C@@H]3CCOC3)C2)CC1` [III-55], for which the IC50 was not above 0.01 µM. For `C#Cc1c(-c2ccc(Oc3ccccc3)cc2)c2c(N)ncnc2n1C(C)C` [III-6] the value was 0.01 to 1 µM; for `C=CC(=O)N1CCC(C#Cc2c(-c3ccc(Oc4ccccc4C#N)cc3)c3c(N)ncnc3n2C(C)C)CC1` [Example I-31], 0.01 to 1 µM.

Regarding `C=CC(=O)NC1CCN(C2CC(C#Cc3c(-c4ccc(Oc5ccccc5)cc4)c4c(N)ncnc4n3C)C2)CC1` (stereo not drawn) [III-51], the concentration for half-maximal inhibition (IC50) was 0.01 to 1 µM. For `C=CC(=O)N1CCC(C#Cc2c(-c3ccc(Oc4cccnc4)cc3)c3c(N)ncnc3n2C(C)C)CC1` [Example I-11] the value was 0.01 to 1 µM; for `C=CC(=O)N1CCC(C#Cc2c(-c3ccc(Oc4ccccc4)cc3)c3c(N)ncnc3n2C2CCOC2)C1` (stereo not drawn) [III-21], 0.01 to 1 µM; for `C=CC(=O)N1CCC(N2CC(O)(C#Cc3c(-c4ccc(Oc5ccccc5)cc4)c4c(N)ncnc4n3C)C2)CC1` [III-23], 0.01 to 1 µM. For `C=CC(=O)N1CCC(N2CC(C#Cc3c(-c4ccc(Oc5ccccc5)cc4F)c4c(N)ncnc4n3C)C2)CC1` [III-82], the IC50 was 0.01 to 1 µM. For `COC(=O)C(C)n1c(C#CC2CCNCC2)c(-c2ccc(Oc3ccccc3)cc2)c2c(N)ncnc21` (stereo not drawn) [II-154, methyl 2-(4-amino-5-(4-phenoxyphenyl)-6-(piperidin-4-ylethynyl)-7H-pyrrolo[2,3-d]pyrimidin-7-yl)propanoate], the IC50 fell in the range of 0.01 to 1 µM. For the molecule `C=CC(=O)N[C@H]1CC[C@H](C#Cc2c(-c3ccc(Oc4cccc(C)n4)c(OC)c3)c3c(N)ncnc3n2C)CC1` [III-4], the half-inhibitory concentration (IC50) lay in the range of 0.01 to 1 µM. As to `C=CC(=O)N1CC[C@H](N2CC(C#Cc3c(-c4ccc(Oc5ccccc5)cc4)c4c(N)ncnc4n3C)C2)[C@@H](C)C1` [III-69], the IC50 was in the range of 0.01 to 1 µM. For `CC(C)n1c(C#CC2(O)CCN(C(=O)/C=C/CN(C)C)CC2)c(-c2ccc(Oc3ccccc3)cc2)c2c(N)ncnc21` [III-24] the value was not above 0.01 µM. With `CN(C)C/C=C/C(=O)N1CCC(C#Cc2c(-c3ccc(Oc4ccccc4)cc3)c3c(N)ncnc3n2C)CC1` [III-14], the IC50 is 0.01 to 1 µM. Take `Cn1c(C#CC2CCN(C(=O)/C=C/CN3CCOCC3)CC2)c(-c2ccc(Oc3ccccc3)cc2)c2c(N)ncnc21` [III-41]: the IC50 is 0.01 to 1 µM.
